Assay results taken from the supplement of paper PMC10331698.
± gives the standard deviation of the averaged measurements.

What was measured:
Assay in all cases: level (log10 ratio to DMSO vehicle control); higher = higher biomarker level / cell amount than vehicle control
Conditions in all cases: in DMSO
[1] = compound: O=S(=O)(O)C(F)(F)C(F)(F)C(F)(F)C(F)(F)C(F)(F)C(F)(F)C(F)(F)C(F)(F)F [Potassium perfluorooctanesulfonate]
Description: (§1)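 BioMAP Diversity Plus panel of 12 human primary cell co-culture systems (3C, 4H, LPS, SAg, BT, BF4T, BE3C, CASM3C, HDF3CGF, KF3CT, MyoF, Mphg). Compounds were added 1 h before stimulation and left for 24 h (MyoF 48 h; BT 72 h for soluble read-outs or 6 d for IgG). Biomarkers were read by ELISA, cytotoxicity by SRB, PBMC viability and proliferation by Alamar Blue. Each well value was divided by the mean of 8 DMSO control wells on the same plate and log10 transformed; duplicate blinded samples were tested at 4 concentrations.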

[2] = compound: O=C(O)C(F)(F)C(F)(F)C(F)(F)C(F)(F)C(F)(F)C(F)(F)C(F)(F)C(F)(F)C(F)(F)C(F)(F)C(F)(F)C(F)(F)F [Perfluorotridecanoic acid]
Description: as §1

Perfluorohexanoic acid = compound: O=C(O)C(F)(F)C(F)(F)C(F)(F)C(F)(F)C(F)(F)F [Perfluorohexanoic acid]
Description: as §1

[3] = compound: O=P(O)(O)CCC(F)(F)C(F)(F)C(F)(F)C(F)(F)C(F)(F)C(F)(F)C(F)(F)C(F)(F)F [((Perfluorooctyl)ethyl)phosphonic acid]
Description: as §1

[4] = compound: O=S(=O)(O)C(F)(F)C(F)(F)C(F)(F)C(F)(F)C(F)(F)C(F)(F)C(F)(F)C(F)(F)F [Perfluorooctanesulfonic acid]
Description: as §1

[5] = compound: CC(C)(C)C(=O)CC(=O)C(F)(F)C(F)(F)C(F)(F)F [(Heptafluorobutanoyl)pivaloylmethane]
Description: as §1

Row | Test System | level (log10) ([1]; 6700 nM) | level (log10) ([1]; 20000 nM) | level (log10) ([1]; 60000 nM) | level (log10) ([2]; 1500 nM) | level (log10) ([2]; 4400 nM) | level (log10) ([2]; 13000 nM) | level (log10) ([2]; 40000 nM) | level (log10) (Perfluorohexanoic acid; 6700 nM) | level (log10) (Perfluorohexanoic acid; 20000 nM) | level (log10) (Perfluorohexanoic acid; 60000 nM) | level (log10) ([3]; 6700 nM) | level (log10) ([3]; 20000 nM) | level (log10) ([3]; 60000 nM) | level (log10) ([4]; 6700 nM) | level (log10) ([4]; 20000 nM) | level (log10) ([4]; 60000 nM) | level (log10) ([5]; 6700 nM) | level (log10) ([5]; 20000 nM) | level (log10) ([5]; 60000 nM)
1 | LPS:sTNF-alpha | -0.03 ± 0.073 | -0.047 ± 0.1 | -0.0915 ± 0.15 | -0.0185 ± 0.0092 | -0.016 ± 0.018 | -0.0375 ± 0.025 | -0.0485 ± 0.021 | -0.009 ± 0.0014 | -0.0005 ± 0.021 | -0.0515 ± 0.0021 | 0.0165 ± 0.088 | 0.008 ± 0.1 | -0.004 ± 0.18 | 0.0195 ± 0.079 | -0.043 ± 0.062 | -0.0545 ± 0.076 | -0.001 ± 0.0014 | 0.0195 ± 0.0064 | 0.07 ± 0.014
2 | BE3C:HLA-DR | -0.012 ± 0.018 | -0.194 ± 0.023 | -0.191 ± 0.042 | -0.0105 ± 0.04 | -0.0325 ± 0.013 | -0.0355 ± 0.0078 | -0.0195 ± 0.019 | -0.0025 ± 0.0021 | -0.011 ± 0.0028 | -0.012 ± 0.0099 | -0.025 ± 0.0099 | -0.031 ± 0.013 | -0.0075 ± 0.013 | -0.0155 ± 0.016 | -0.189 ± 0.014 | -0.409 ± 0.1 | 0.0115 ± 0.0021 | 0.01 ± 0.0042 | -0.017 ± 0.0057
3 | LPS:CD106/VCAM-1 | 0.0025 ± 0.019 | -0.004 ± 0.016 | -0.0125 ± 0.04 | -0.004 ± 0.0014 | -0.0315 ± 0.054 | -0.029 ± 0.052 | -0.08 ± 0.0057 | -0.0025 ± 0.0035 | -0.0055 ± 0.0035 | 0.008 ± 0.0042 | -0.011 ± 0.017 | -0.0125 ± 0.0021 | -0.05 ± 0.0028 | -0.009 ± 0.0085 | -0.017 ± 0.011 | -0.023 ± 0.027 | -0.0315 ± 0.047 | -0.042 ± 0.017 | -0.021 ± 0.034
4 | LPS:CD62E/E-Selectin | 0.0005 ± 0.037 | 0.0035 ± 0.00071 | 0.0205 ± 0.00071 | 0.004 ± 0.02 | 0.0025 ± 0.028 | -0.002 ± 0.0085 | -0.0065 ± 0.005 | -0.01 ± 0.0042 | -0.0065 ± 0.012 | -0.003 ± 0.0028 | 0.0085 ± 0.018 | -0.0145 ± 0.015 | -0.012 ± 0.0057 | -0.002 ± 0.0014 | -0.0055 ± 0.036 | 0.019 ± 0.0028 | -0.0025 ± 0.005 | -0.0145 ± 0.021 | 0.004 ± 0.0042
5 | BT:sIL-17A | 0.023 ± 0.25 | 0.158 ± 0.1 | -0.133 ± 0.022 | -0.134 ± 0.0028 | -0.113 ± 0.014 | 0.155 ± 0.15 | -0.104 ± 0.11 | 0.009 ± 0.22 | 0.038 ± 0.075 | -0.086 ± 0.068 | 0.0985 ± 0.00071 | 0.132 ± 0.044 | 0.0985 ± 0.083 | 0.13 ± 0.18 | 0.106 ± 0.098 | 0.0295 ± 0.025 | -0.0075 ± 0.013 | -0.0315 ± 0.053 | -0.194 ± 0.18
6 | BT:sTNF-alpha | 0.003 ± 0.076 | 0.0225 ± 0.069 | -0.039 ± 0.016 | 0.0475 ± 0.064 | 0.0075 ± 0.033 | -0.054 ± 0.096 | -0.05 ± 0.067 | -0.036 ± 0.05 | -0.023 ± 0.081 | -0.01 ± 0.11 | -0.019 ± 0.013 | -0.0175 ± 0.15 | -0.211 ± 0.39 | -0.047 ± 0.095 | -0.0585 ± 0.054 | 0.0105 ± 0.079 | -0.075 ± 0.064 | -0.0605 ± 0.016 | 0.0315 ± 0.18
7 | BT:sIL-6 | 0.0165 ± 0.042 | 0.0765 ± 0.016 | -0.023 ± 0.11 | 0.033 ± 0.086 | -0.0175 ± 0.026 | 0.011 ± 0.12 | -0.0485 ± 0.066 | -0.0375 ± 0.079 | 0.013 ± 0.062 | -0.037 ± 0.021 | 0.045 ± 0.0014 | 0.0645 ± 0.035 | -0.019 ± 0.055 | 0.0325 ± 0.06 | -0.0415 ± 0.046 | -0.0185 ± 0.039 | -0.038 ± 0.038 | -0.029 ± 0.0057 | -0.013 ± 0.023
8 | 4H:VEGFR2 | 0.0245 ± 0.0021 | 0.01 ± 0.024 | 0.027 ± 0.0099 | 0.0375 ± 0.0078 | -0.0205 ± 0.037 | -0.0125 ± 0.1 | -0.257 ± 0.1 | -0.003 ± 0.021 | -0.009 ± 0.014 | -0.001 ± 0.024 | -0.016 ± 0.033 | -0.024 ± 0.035 | 0.007 ± 0.0057 | 0.0265 ± 0.029 | 0.0155 ± 0.0064 | 0.019 ± 0.042 | 0 ± 0.011 | -0.012 ± 0.0071 | -0.0105 ± 0.032
9 | BF4T:tPA | -0.0045 ± 0.0092 | -0.019 ± 0.0028 | 0.0185 ± 0.032 | 0.025 ± 0.05 | -0.009 ± 0.017 | -0.0045 ± 0.015 | -0.0085 ± 0.018 | -0.0045 ± 0.0064 | -0.0035 ± 0.019 | 0.0055 ± 0.013 | 0.0055 ± 0.013 | 0.0645 ± 0.005 | 0.072 ± 0.054 | 0.0135 ± 0.013 | -0.0175 ± 0.00071 | 0.0195 ± 0.018 | -0.024 ± 0.027 | -0.033 ± 0.0057 | -0.0225 ± 0.026
10 | BF4T:Keratin 8/18 | -0.0035 ± 0.022 | 0.01 ± 0.014 | 0.0385 ± 0.053 | 0.0145 ± 0.043 | -0.0005 ± 0.013 | -0.0105 ± 0.015 | 0.0135 ± 0.023 | 0.017 ± 0.028 | 0.0165 ± 0.015 | -0.006 ± 0.037 | -0.016 ± 0.017 | -0.0195 ± 0.005 | -0.0155 ± 0.042 | -0.009 ± 0.0014 | -0.0015 ± 0.0021 | 0.0135 ± 0.021 | -0.007 ± 0.061 | -0.024 ± 0.041 | 0.0145 ± 0.0035
11 | SAg:CCL2/MCP-1 | -0.015 ± 0.0071 | -0.0025 ± 0.0021 | 0.004 ± 0.013 | -0.013 ± 0.016 | -0.0275 ± 0.0035 | -0.0265 ± 0.0064 | 0.005 ± 0.014 | -0.01 ± 0.0057 | -0.0255 ± 0.0078 | 0.0135 ± 0.018 | 0.006 ± 0.0042 | 0.004 ± 0.016 | -0.0195 ± 0.053 | 0.003 | 0.004 ± 0.0042 | 0.0015 ± 0.0064 | -0.005 | -0.0155 ± 0.0035 | -0.0085 ± 0.05
12 | 4H:CD87/uPAR | 0.0655 ± 0.044 | 0.037 ± 0.033 | 0.082 ± 0.058 | 0.0035 ± 0.028 | -0.03 ± 0.017 | -0.0175 ± 0.015 | -0.0515 ± 0.074 | 0.0025 ± 0.042 | -0.002 ± 0.011 | 0.0205 ± 0.039 | 0.018 ± 0.058 | -0.003 ± 0.024 | 0.102 ± 0.0064 | 0.07 ± 0.033 | 0.065 ± 0.014 | 0.0945 ± 0.049 | -0.005 ± 0.057 | -0.0135 ± 0.036 | 0.016 ± 0.12
13 | BF4T:CCL2/MCP-1 | 0.005 ± 0.072 | 0.0255 ± 0.022 | 0.07 ± 0.016 | 0.025 ± 0.0028 | 0.0195 ± 0.028 | 0.035 ± 0.0042 | 0.0175 ± 0.013 | -0.0045 ± 0.0021 | -0.012 ± 0.024 | -0.0015 ± 0.052 | 0.0125 ± 0.019 | 0.0295 ± 0.026 | 0.061 ± 0.02 | 0.0145 ± 0.005 | 0.0095 ± 0.035 | -0.0565 ± 0.21 | -0.0085 ± 0.0064 | 0.004 ± 0.038 | -0.223 ± 0.34
